# Laboratory results from patent publication US12402628B2, “Compositions, kits, methods and uses for cleaning, disinfecting, sterilizing and/or treating” (Collidion, Inc., priority 2018, dated 2025).
# Values joined by “and” are separate entries in the source; they are usually repeats but may differ in a detail not shown here. Equal values may be shown once.
# System: Staphylococcus epidermidis (ATCC 12228)
# Experiment: Bacterial viability assay with Bovine Serum, HOCl and salt controls (Table 30)
# Assay type: cell-based
# Details: 200 ppm Hypochlorous acid, 5 minutes
# Protocol: Stock cultures of pathogenic bacteria Staphylococcus epidermidis (ATCC 12228) were prepared as described in Example 3. The final numeration count uses aliquot volume, count obtained on TSA plate and the total original volume of culture. The remaining amount in the tube was used to inoculate actual test samples. Samples from each composition tested were set up with Bovine Serum as follows: 1) Assays with serum contained 100 μL of pathogenic bacteria suspension, 500 μL of Bovine Serum and 9400 μL of one of the composition formulations shown in Table 29; 2) HOCl control assays contained 100 μL of pathogen bacteria suspension, 500 μL of Bovine Serum and 9400 μL of 350 ppm, 200 ppm, 100 ppm or 50 ppm Hypochlorous acid; 3) Salt control assays contained 100 μL of pathogen bacteria suspension, 500 μL of Bovine Serum and 9400 μL of 140 ppm, 80 ppm, 40 ppm or 20 ppm each of Copper (II) chloride, Iron (II) chloride and zinc chloride or each of Copper (II) chloride, Iron (III) chloride and zinc chloride; and 4) Negative control assays contained 100 μL of pathogen bacteria suspension, 500 μL of Bovine Serum and 9400 μL of sterile water. Samples were exposed for five (5) minutes at which point a neutralizing agent was used to inhibit the activity of the microbial agent being tested. […] The presence of viable bacteria was then measured by counting the number of colonies observed on the agar medium.
substance,measurement,value
Hypochlorous acid [HOCl Control],"Log Growth Reduction, HOCl Control",3.03 log and 3.00 log
